Data set [1] concerns IL-3/JAK2-dependent BaF/3 cells. Put plainly: BaF/3 cell viability (MTS). The format is cell-based, murine. The settings on record: identical concentrations of EP009 (up to 10 μM), 72 hours. The method, then: FIGS. 2A-2F. […] (B) Kit225 or (C) BaF/3 cells cultured in the presence of IL-2 or IL-3, respectively, were treated with vehicle (PBS; lane a) or increasing amounts of EP009 (0-50 μM; lanes b-h) for 12 hours. Cells were then lysed, clarified, and immunoprecipitated (IP) with anti-JAK3 (α-JAK3) or anti-JAK2 (α-JAK2), and subjected to Western blot (WB) analysis with anti-phosphotyrosine (α-pY). Blots were stripped and reprobed with corresponding antibody to verify equivalent protein loading. (D) Immunopurified JAK3 was subjected to in vitro autokinase analysis after treatment with vehicle (DMSO; lanes a and b) or ascending concentrations of EP009 (0-10 μM; lanes c-f) for 1 hour at room temperature. […] (E) Kit225 or BaF/3 cells were cultured with increasing amounts of EP009 (0-10 μM) for 72 hours and cell viability measured with the MTS tetrazolium salt assay. Values represent mean absorbance (OD490-OD650 nm) normalized to vehicle (PBS) treated control cells, while error bars represent the standard deviation (n=3). (F) HEK293, HEPG2, or naïve primary human PBMCs were cultured with increasing amounts of EP009 (0-10 μM) for 72 hours and cell viability measured with the MTS tetrazolium salt assay. Values represent mean absorbance (OD490-OD650 nm) normalized to vehicle (PBS) treated control cells, while error bars represent the standard deviation (n=3). […]

The nature of data set [2]: Stability analysis in solvents using NMR and HPLC. The format is physicochemical. The method, then: FIG. 3. EP009 is structurally stable under varying solvent and temperature conditions. EP009 was dissolved in DMSO, DMSO:H20 (3:2 ratio), or methanol, and incubated at 25° C. or 37° C. for 24 hours.
FIG. 11 illustrates the dose-dependent effect of (FIG. 11A) freshly prepared EP-009(P) and (FIG. 11B) EP-009(P) stored in aqueous conditions for 48 hr at room temperature on IL-2/JAK3-dependent Kit225 cell viability. FIG. 12 illustrates LC-MS/MS detection of EP-009 (5 ng/ml) in mouse plasma at a retention time of 1.91 min.

The subject of another data set is JNK1/2. Put plainly: Phospho-JNK1/2 in SU-DHL-1 cells (Luminex multiplex). It is filed as cell-based, human. The settings on record: 24 hours, dose-dependent. The protocol: FIGS. 8A-8F. Effect of EP009 on ALCL cells is mediated through selective activation of ERK1/2 and JNK1/2 stress signaling pathways, and inhibition of p70 S6 kinase growth signaling pathways. SU-DHL-1 cells were treated with vehicle (PBS) or increasing amounts of EP009 (0-50 μM) for 24 hours. Cells were then lysed, clarified, and subjected to Luminex multiplex analysis to detect phosphorylated (A) ERK1/2, (B) JNK1/2, (C) p70 S6 kinase, (D) IκBα, (E) CREB, and (F) p38. Values represent mean fluorescence intensity (MFI) normalized to corresponding GAPDH MFI, while error bars represent the standard deviation (n=2). Representative data from two independent experiments are shown. Statistical significance was determined using Student's t-test. (*, p<0.05).
The MILLIPLEX MAP 8-plex Multi-Pathway Signaling Phosphoprotein kit (Millipore) was used to detect phosphorylated ERK1/2 (Thr185/Tyr187), STAT3 (Ser727), JNK1/2 (Thr183/Tyr185), p70 S6 kinase (Thr412), IκBα (Ser32), STAT5A/B (Tyr694/699), CREB (Ser133), and p38 (Thr180/Tyr182). The MILLIPLEX MAP 5-plex STAT Phosphoprotein kit (Millipore) was used to detect phosphorylated STAT1 (Tyr701), STAT2 (Tyr690), STAT3 (Tyr705), STAT5A/B (Tyr694/699), and STAT6 (Tyr641). The MILLIPLEX MAP Human Apoptosis 3-plex kit (Millipore) was used to detect cleaved PARP, cleaved Caspase 3, and total GAPDH for protein normalization.

Where only a bound is given, the exact number is not on record here.

For the molecule `C=C1CCCCCCCCCC(CO)C1=O` (stereo not shown) [EP009, 2-(Hydroxymethyl)-12-methylenecyclododecanone], in data set [1], the “effect on BaF/3 cell viability” value was “no effect”. In addition, the “stability under various solubility conditions” value in data set [2] (24 hr at 25° C. and 37° C.) was “stabile”. Also, the “intrinsic stability (purity)” value in data set [2] (various solvents at 37° C. for 24 hours) is reported as above 95%. Also, the JNK1/2 phosphorylation entry with JNK1/2 was “induced phosphorylation and activation”.

The record behind these values is patent US9371265B2, “Compositions and methods related to inhibitors of JAK kinase” (EP PHARMA, INC., priority 2012, dated 2016).
